Measurements reported in patent US12239624B2, “Glyceryl tris (beta-hydroxybutyrate) and neuronal transient ischemic attacks” (NeuroEnergy Ventures, Inc., priority 2019, dated 2025).

Conditions: in vivo

CC(O)CC(=O)OCC(COC(=O)CC(C)O)OC(=O)CC(C)O (stereo not drawn) [GTβHB, Glyceryl Tris (Beta-HydroxyButyrate)]
time for beta-hydroxybutyrate and acetoacetate from GTβHB to return to pre-administration levels: ≤ 24 h | period within which GTβHB is cleared by the body (po): ≤ 24 h
